Data on 19 molecules can be found in patent US11866414B2, “Substituted heterocyclic compounds” (BRISTOL-MYERS SQUIBB COMPANY, priority 2021, dated 2024).

SMILES strings stand for the structures. pIC50: −log10 of the molar value. Read-outs that look alike come from different tables or passages of the source.

Data set [1] is described as follows: Brain penetration in vivo assay (brain and plasma exposure). The settings on record: C57BL6, brain / plasma, 10 mg/kg, mouse, 10 mpk, po, read-out: Ratio of exposure in brain to plasma (mouse) (1 h, 10 mpk, po). The protocol: Brain Penetration In Vivo Assay
A pharmacokinetic study was performed using C57BL6 wild-type mice (n=3 per experiment) to determine brain and plasma exposure of compounds of the invention. The compound was administered orally in a solution of 5% ETHANOL: 90% PEG 300; 5% TPGS at 5 mL/kg for a final concentration of 10 mg/kg. Nice were euthanized 1 hour post-dose and plasma and brain were collected and frozen for analysis. Brain tissues were homogenized in a 1:1 volume of blank C57BL6 mouse plasma. Concentrations of the compound in plasma and brain homogenate were determined by LC-MS analysis.

The nature of another data set: in vitro. The following applies: human, Caco-2, pH 7.4.
The test system of data set [2] is IFNα-induced STAT phosphorylation (pSTAT5). Kind of data set: IFNα-induced STAT phosphorylation in human whole blood. In kind it is cell-based. The following applies: 1 h compound, 1000 U/mL IFNα A/D 15 min, CD3 positive population, read-out: Human Whole blood IFNa pSTAT5 IC50. Here is the method:
IFNα-Induced STAT Phosphorylation in Human Whole Blood
After an hour long incubation with compound, human whole blood (drawn with ACD-A as anticoagulant) was stimulated with 1000 U/mL recombinant human IFNα A/D (R&D Systems 11200-2) for 15 min. The stimulation was stopped by adding Fix/Lyse buffer (BD 558049). Cells were stained with a CD3 FITC antibody (BD 555916), washed, and permeabilized on ice using Perm III buffer (BD 558050). Cells were then stained with an Alexa-Fluor 647 pSTAT5 (pY694) antibody (BD 612599) for 60 min prior to analysis on the iQue Plus. The amount of pSTAT5 expression was quantitated by median fluorescence intensity after gating on the CD3 positive population.

Broadly, the Papp A→B is the apparent permeability from the apical to the basolateral side of a cell layer. A low value points to poor permeation. Broadly, the efflux ratio is the permeability from basolateral to apical divided by that in the opposite direction, in the common usage. One may read the pIC50 as −log10 of the IC50, conventionally taken in molar units. For `[2H]C([2H])([2H])NC(=O)c1nnc(NC(=O)[C@@H]2C[C@H]2C)cc1Nc1nccc(-c2cnn(C)n2)c1OC` [Example 41, 4-((3-methoxy-4-(2-methyl-2H-1,2,3-triazol-4-yl)pyridin-2-yl)amino)-N-(methyl-d3)-6-((1R,2R)-2-methylcyclopropane-1-carboxamido)pyridazine-3-carboxamide], the Kp at 1 h in data set [1] was 0.3. In addition, in “in vitro”, the Papp A→B at 2 h, 3 μM is 33.9 ×10⁻⁶ cm/s and the efflux ratio at 2 h, 3 μM is 0.5. Also, the pIC50 in data set [2] was 7.10.

`[2H]C([2H])([2H])NC(=O)c1nnc(Nc2ccc(OC)nn2)cc1Nc1cccc(-c2cnn(C)n2)c1OC` [Example 5, 4-{[2-methoxy-3-(2-methyl-2H-1,2,3-triazol-4-yl)phenyl]amino}-6-[(6-methoxypyridazin-3-yl)amino]-N—(^2H3)methylpyridazine-3-carboxamide]: in data set [1], the Kp at 1 h is 0.2. Besides, in “in vitro”, the Papp A→B at 2 h, 3 μM came out at 20.9 ×10⁻⁶ cm/s and the efflux ratio at 2 h, 3 μM is 0.9. Moreover, the pIC50 in data set [2] is 7.22.

As to `[2H]C([2H])([2H])NC(=O)c1nnc(NC(=O)C2CC2)cc1Nc1nccc(-c2cnn(C)n2)c1OC` [Example 36, 6-(cyclopropanecarboxamido)-4-((3-methoxy-4-(2-methyl-2H-1,2,3-triazol-4-yl)pyridin-2-yl)amino)-N-(methyl-d3)pyridazine-3-carboxamide], in data set [1], the Kp at 1 h was determined as 0.8. For the same molecule, in “in vitro”, the Papp A→B at 2 h, 3 μM came out at 32.8 ×10⁻⁶ cm/s and the efflux ratio at 2 h, 3 μM was found to be 0.6. Besides, the pIC50 in data set [2] was 7.30.

Regarding `[2H]C([2H])([2H])NC(=O)c1nnc(NC(=O)C2CC2)cc1Nc1cccc(-c2cnn(C3CC3)n2)c1OC` [Example 11, 6-cyclopropaneamido-4-{[3-(2-cyclopropyl-2H-1,2,3-triazol-4-yl)-2-methoxyphenyl]amino}-N—(^2H3)methylpyridazine-3-carboxamide], the Kp at 1 h in data set [1] is 0.5. Moreover, in the data set “in vitro”, the Papp A→B at 2 h, 3 μM was 9.7 ×10⁻⁶ cm/s and the efflux ratio at 2 h, 3 μM came to 0.7. The pIC50 in data set [2] was 6.92.

`[2H]C([2H])([2H])NC(=O)c1nnc(NC(=O)C2CC2)cc1Nc1cccc(-c2cnn(CC)n2)c1OC` [Example 1, 6-(cyclopropanecarboxamido)-4-((2-methoxy-3-(2-ethyl-2H-1,2,3-triazol-4-yl)phenyl)amino)-N-(methyl-d3)pyridazine-3-carboxamide]: the Kp at 1 h in data set [1] was 0.7. Moreover, in “in vitro”, the Papp A→B at 2 h, 3 μM was determined as 29.1 ×10⁻⁶ cm/s and the efflux ratio at 2 h, 3 μM came to 0.8. Moreover, the pIC50 in data set [2] was 6.59.

For `[2H]C([2H])([2H])NC(=O)c1nnc(NC(=O)C2CC2)cc1Nc1cccc(-c2nn(C3CC3)nc2C)c1OC` [Example 27, 6-(cyclopropanecarboxamido)-4-((3-(2-cyclopropyl-5-methyl-2H-1,2,3-triazol-4-yl)-2-methoxyphenyl)amino)-N-(methyl-d3)pyridazine-3-carboxamide], in “in vitro”, the Papp A→B at 2 h, 3 μM is 20.5 ×10⁻⁶ cm/s and the efflux ratio at 2 h, 3 μM is 0.8. In data set [2], the pIC50 was 6.68.

As to `[2H]C([2H])([2H])NC(=O)c1nnc(NC(=O)N(C)C)cc1Nc1nccc(-c2cnn(C3CC3)n2)c1OC` [Example 61, 4-((4-(2-cyclopropyl-2H-1,2,3-triazol-4-yl)-3-methoxypyridin-2-yl)amino)-6-(3,3-dimethylureido)-N-(methyl-d3)pyridazine-3-carboxamide], in the data set “in vitro”, the Papp A→B at 2 h, 3 μM is 38.3 ×10⁻⁶ cm/s and the efflux ratio at 2 h, 3 μM was found to be 0.4. Besides, in data set [2], the pIC50 is 6.32.

Take `[2H]C([2H])([2H])NC(=O)c1nnc(NC(=O)C2CC2)cc1Nc1nc(C)cc(-c2cnn(C)n2)c1OC` [Example 46, 6-(cyclopropanecarboxamido)-4-((3-methoxy-6-methyl-4-(2-methyl-2H-1,2,3-triazol-4-yl)pyridin-2-yl)amino)-N-(methyl-d3)pyridazine-3-carboxamide]: in the data set “in vitro”, the Papp A→B at 2 h, 3 μM stood at 38.1 ×10⁻⁶ cm/s and the efflux ratio at 2 h, 3 μM was found to be 0.4. The pIC50 in data set [2] was 8.00.

As to `[2H]C([2H])([2H])NC(=O)c1nnc(NC(=O)C2CC2)cc1Nc1cccc(-c2ncn(C3CC3)n2)c1OC` [B, reference compound], in data set [1] (Table 4, comparison of CNS penetration with prior art), the Kp at 1 h amounted to 0.02.

Consider `[2H]C([2H])([2H])NC(=O)c1nnc(Nc2ccn(C)n2)cc1Nc1cccc(-c2cnn(C)n2)c1OC` [Example 25, 4-((2-methoxy-3-(2-methyl-2H-1,2,3-triazol-4-yl)phenyl)amino)-N-(methyl-d3)-6-((1-methyl-1H-pyrazol-3-yl)amino)pyridazine-3-carboxamide], for which, in “in vitro”, the Papp A→B at 2 h, 3 μM came out at 1.9 ×10⁻⁶ cm/s and the efflux ratio at 2 h, 3 μM was 1.2. For the same molecule, the pIC50 in data set [2] is 7.22.

Consider `[2H]C([2H])([2H])NC(=O)c1nnc(NC(=O)C2CC2)cc1Nc1cccc(-c2nn(C)nc2CC)c1OC` [Example 20, 6-(cyclopropanecarboxamido)-4-((3-(5-ethyl-2-methyl-2H-1,2,3-triazol-4-yl)-2-methoxyphenyl)amino)-N-(methyl-d3)pyridazine-3-carboxamide], for which, in the data set “in vitro”, the Papp A→B at 2 h, 3 μM is 17 ×10⁻⁶ cm/s and the efflux ratio at 2 h, 3 μM was determined as 1.1. Besides, in data set [2], the pIC50 was 6.68.

For the molecule `[2H]C([2H])([2H])NC(=O)c1nnc(NC(=O)[C@@H]2C[C@H]2F)cc1Nc1cccc(-c2cnn(C)n2)c1OC` [Example 29, 6-((1S,2R)-2-fluorocyclopropane-1-carboxamido)-4-((2-methoxy-3-(2-methyl-2H-1,2,3-triazol-4-yl)phenyl)amino)-N-(methyl-d3)pyridazine-3-carboxamide], in “in vitro”, the Papp A→B at 2 h, 3 μM amounted to 37.9 ×10⁻⁶ cm/s and the efflux ratio at 2 h, 3 μM was determined as 0.5. Further, the pIC50 in data set [2] is 7.30.

For the molecule `[2H]C([2H])([2H])NC(=O)c1nnc(NC(=O)[C@@H]2C[C@@H]2F)cc1Nc1nc(C)cc(-c2cnn(C)n2)c1OC` [Example 69, 6-((1S,2S)-2-fluorocyclopropane-1-carboxamido)-4-((3-methoxy-6-methyl-4-(2-methyl-2H-1,2,3-triazol-4-yl)pyridin-2-yl)amino)-N-(methyl-d3)pyridazine-3-carboxamide], in the data set “in vitro”, the Papp A→B at 2 h, 3 μM was 36.2 ×10⁻⁶ cm/s and the efflux ratio at 2 h, 3 μM turned out to be 0.6. In data set [2], the pIC50 was 8.52.

As to `[2H]C([2H])([2H])NC(=O)c1nnc(Nc2ccccn2)cc1Nc1cccc(-c2cnn(C)n2)c1OC` [Example 8, 4-{[2-methoxy-3-(2-methyl-2H-1,2,3-triazol-4-yl)phenyl]amino}-N—(^2H3)methyl-6-[(pyridin-2-yl)amino]pyridazine-3-carboxamide], in “in vitro”, the Papp A→B at 2 h, 3 μM is 1.9 ×10⁻⁶ cm/s and the efflux ratio at 2 h, 3 μM is under 0.8. In data set [2], the pIC50 was 6.64.

In the case of `[2H]C([2H])([2H])NC(=O)c1nnc(NC(=O)C2CC2)cc1Nc1cc(C(=O)OC)cc(-c2cnn(C)n2)c1OC` [Example 32, methyl 3-((6-(cyclopropanecarboxamido)-3-((methyl-d3)carbamoyl)-pyridazin-4-yl)amino)-4-methoxy-5-(2-methyl-2H-1,2,3-triazol-4-yl)benzoate], in the data set “in vitro”, the apical-to-basolateral permeability (Papp A→B) at 2 h, 3 μM amounted to 19.5 ×10⁻⁶ cm/s and the efflux ratio at 2 h, 3 μM was determined as 0.9. Besides, the pIC50 in data set [2] is 6.66.

`[2H]C([2H])([2H])NC(=O)c1nnc(Nc2ccc(C(C)(C)O)cn2)cc1Nc1nccc(-c2cnn(C)n2)c1OC` [Example 65, 6-{[5-(2-hydroxypropan-2-yl)pyridin-2-yl]amino}-4-{[3-methoxy-4-(2-methyl-2H-1,2,3-triazol-4-yl)pyridin-2-yl]amino}-N—(^2H3)methylpyridazine-3-carboxamide]: in “in vitro”, the Papp A→B at 2 h, 3 μM worked out at 11.7 ×10⁻⁶ cm/s and the efflux ratio at 2 h, 3 μM came out at 1.6. The pIC50 in data set [2] was 8.40.

For the molecule `[2H]C([2H])([2H])NC(=O)c1nnc(NC(=O)[C@@H]2C[C@@H]2C)cc1Nc1cccc(-c2cnn(C)n2)c1OC` [Example 26, 4-((2-methoxy-3-(2-methyl-2H-1,2,3-triazol-4-yl)phenyl)amino)-N-(methyl-d3)-6-((1R,2S)-2-methylcyclopropane-1-carboxamido)pyridazine-3-carboxamide], in “in vitro”, the Papp A→B at 2 h, 3 μM turned out to be 33.4 ×10⁻⁶ cm/s and the efflux ratio at 2 h, 3 μM worked out at 0.6. In addition, the pIC50 in data set [2] was 7.22.

Take `[2H]C([2H])([2H])NC(=O)c1nnc(Nc2ccccn2)cc1Nc1nccc(-c2cnn(C)n2)c1OC` [Example 63, 4-((3-methoxy-4-(2-methyl-2H-1,2,3-triazol-4-yl)pyridin-2-yl)amino)-N-(methyl-d3)-6-(pyridin-2-ylamino)pyridazine-3-carboxamide]: in the data set “in vitro”, the Papp A→B at 2 h, 3 μM was 3.9 ×10⁻⁶ cm/s and the efflux ratio at 2 h, 3 μM was under 0.4. Besides, the negative logarithm of the IC50 (pIC50) in data set [2] was 7.70.

As for `[2H]C([2H])([2H])NC(=O)c1nnc(NC(=O)C2CC2)cc1Nc1cc(CC)cc(-c2cnn(C)n2)c1OC` [Example 21, 6-(cyclopropanecarboxamido)-4-((5-ethyl-2-methoxy-3-(2-methyl-2H-1,2,3-triazol-4-yl)phenyl)amino)-N-(methyl-d3)pyridazine-3-carboxamide], in “in vitro”, the Papp A→B at 2 h, 3 μM amounted to 33.6 ×10⁻⁶ cm/s and the efflux ratio at 2 h, 3 μM is 0.5. Besides, the pIC50 in data set [2] is 6.64.
